Patent publication EP0610377B1, “TRI-SUBSTITUTED TETRAHYDROFURAN ANTIFUNGALS” (SCHERING CORPORATION, priority 1991, dated 1993)

Assays:
Aspergillus flavus = Aspergillus flavus pulmonary infection model in compromised mice, oral treatment; type: in vivo; settings: for %SURVIVAL / %ANIMALS NEG: 18 days post infection; for %SURVIVAL: compromised CF-1 mice; for %ANIMALS NEG: negative = <10 colonies
Description: The in vivo oral antifungal activity of the compounds of Example 23-26 were compared to those of itraconazole, fluconazole and saperconazole in an Aspergillus pulmonary infection model in mice. The procedure of David Loebenberg et al. entitled "Sch 42427, The Active Enantiomer of Antifungal agent Sch 39304: In Vitro and In Vivo Activity" Antimicrobial Agents and Chemotherapy (1992), 36 498-501 was used. The Aspergillus flavus pulmonary model was run in the following manner Male, CF-1 mice weighing 20 grams were compromised with cortisone acetate (100 mg/kg), administered subcutaneously, once daily for 3 days. In addition, to prevent bacterial disease, tetracycline HCL (300 mg/1) was added to the drinking water and given ad libitum. On day 2 of compromising, mice were infected in an inhalation chamber, first described by Piggot and Emmons in 1960 and modified by us. The chamber is a 1 liter pyrex, thick-walled flask with 8 tubular side-arms that extend into the flask. Each side-arm is a pyrex tube of 14 cm length, constricted to a 1 cm opening inside the flask. The bottom of the flask was covered with a malt extract agar medium on which a sporulating culture of A. flavus ATCC 24133 was grown for 13 days at room temperature. The top of the flask was closed with a #10 stopper through which passed a glass tube attached by rubber tubing to a 60 mL syringe. Mice were placed in each of the side arms and pushed to the bottoms so that their nares extended beyond the open end of the tube and over the agar. Cotton plugs were then inserted behind the mice to hold them in place. By pumping the 60 mL syringe twice, air was forced over the culture and produced a cloud of spores. Mice were exposed to the spore cloud for one minute. Within 15-30 minutes after exposure, a number of mice were sacrificed and lung tissue samples homogenized for culture to determine the number of inhaled conidia. Oral treatment began 24 h post-infection with doses of 5 to 250 mg of drug/kg in ethanol; vehicle (115 ml of Emulphor EL-719P, GAF, Wayne, NJ; and 5 ml of 20% w/v lactic acid per liter of water), 10:90 v/v, once daily for 4 days.
The procedure of Example 31 was used to compare the in vivo oral antifungal activity of (±)-5R/S-(cis)-4-[4-[4-[4-[[5-(2,4-difluorophenyl)-5-(1H-1,2,4-triazol-1-ylmethyl) tetrahydrofuran-3-yl]methoxy-phenyl-1-piperazinyl]phenyl]-2,4-dihydro-2[(R/S)-(1-methylpropyl)]-3H-1,2,4-triazol-3-one with (±)-2R/S-(cis)-1-[4-[[2-(2,4-difluorophenyl)-2-(1H-1,2,4-triazol-1-ylmethyl) tetrahydro-4-furanyl]methoxy]phenyl]-4-(1-methylethyl)piperazine of Example 68 of USP 5,039,676 in an Aspergillus pulmonary infection model described in Example 31. […]
The procedures of Examples 31 and 34 were used.

Candida = Candida vaginal infection in a hamster model; type: in vivo; settings: result in words
[1] = 33 mg/kg PO once a day for 4 days
[2] = 66 mg/kg PO once a day for 4 days
[3] = 100 mg/kg PO once a day for 4 days

| Structure (SMILES) | %SURVIVAL (Aspergillus flavus; [1]) [%] | %ANIMALS NEG (Aspergillus flavus; [1]) [%] | %SURVIVAL (Aspergillus flavus; [2]) [%] | %ANIMALS NEG (Aspergillus flavus; [2]) [%] | %SURVIVAL (Aspergillus flavus; [3]) [%] | %ANIMALS NEG (Aspergillus flavus; [3]) [%] | oral activity in the Aspergillus pulmonary mouse model (Aspergillus flavus; PO, result in words (active / inactive)) | oral activity against Aspergillus flavus pulmonary infections compared with itraconazole, fluconazole and saperconazole (Aspergillus flavus; in vivo mouse model, PO, result in words) | activity against a Candida vaginal infection compared with itraconazole and saperconazole (Candida) |
| --- | --- | --- | --- | --- | --- | --- | --- | --- | --- |
| CC[C@H](C)n1ncn(-c2ccc(N3CCN(c4ccc(OC[C@@H]5CO[C@@](Cn6cncn6)(c6ccc(F)cc6F)C5)cc4)CC3)cc2)c1=O [Example 24, (-)-[(5R)-cis]-4-[4-[4-[4-[[5-(2,4-Difluorophenyl)-5-(1H-1,2,4-triazol-1-ylmethyl)tetrahydrofuran-3-yl]methoxy]phenyl]-1-piperazinyl]phenyl]-2,4-dihydro-2-[(1S)-(1-methylpropyl)]-3H-1,2,4-triazol-3-one] | 0 | 0 | 50 | 0 | 100 | 20 | exhibit oral activity | more active orally | more active |
| CC[C@@H](C)n1ncn(-c2ccc(N3CCN(c4ccc(OC[C@@H]5CO[C@@](Cn6cncn6)(c6ccc(F)cc6F)C5)cc4)CC3)cc2)c1=O [Example 23] | 10 | 0 | 10 | 0 | 70 | 10 | – | – | – |
| CCC(C)n1ncn(-c2ccc(N3CCN(c4ccc(OCC5COC(Cn6cncn6)(c6ccc(Cl)cc6Cl)O5)cc4)CC3)cc2)c1=O (stereo not shown) [Itraconazole, reference compound] | – | 0 | – | 0 | 20 | 0 | – | – | – |
